“And” between values parts separate entries of the source, which are not always exact repeats. Equal entries are not always repeated.
Key:
[1] = test system: harvested rat small intestinal segments: Duodenum; experiment: Ussing chamber mucosal to serosal transport across rat duodenum; format: in vitro ADME; details: 5 mg/ml of DTPA in HEPES Buffer
Experimental: (§1) The primary objective of these in vitro studies was to determine a formulation containing permeation enhancers/other additives that achieved maximum transport of DTPA from mucosal to serosal side of the intestine. The mucosal to serosal absorption of DTPA (Zinc/Calcium) was measured in vitro across harvested rat intestinal segments and colon, in an EasyMount Ussing System (Physiological Instruments Inc., CA, Item #EM-CSYS-8). The Ussing chamber consists of two diffusion chambers, a heating block for temperature control, needle valves for gas flow adjustment and gas lift stirring, and Ag/AgCl voltage and current electrodes for measuring transepithelial voltage and for passing current. Representative sections of the harvested rat small intestinal segments (jejunum, duodenum, and ileum) and the rat colon were mounted on sliders placed between the chambers, and DTPA (Zinc/Calcium) transport across the sections was monitored. Aliquots of sample solution were removed from the ‘serosal’ side at 30 min intervals and analyzed by high performance liquid chromatography (HPLC). The change in mucosal to serosal transport of DTPA (Zinc/Calcium) in the presence of different permeation enhancers was determined.
(§2) Zn-DTPA and Ca-DTPA was dissolved in HEPES buffer (VWR, Brisbane, Calif.), with or without additives, at the predetermined drug concentrations. […]

[2] = test system: harvested rat small intestinal segments: Jejunum; experiment: Ussing chamber mucosal to serosal transport across rat jejunum; format: in vitro ADME
Experimental: as §1
Zn-DTPA and Ca-DTPA was dissolved in HEPES buffer (VWR, Brisbane, Calif.), with or without additives, at the predetermined drug concentrations. HEPES buffer was used as the base mucosal and serosal fluid. Before initiating the experiment, 5 ml of HEPES buffer was added to each of the two chambers (mucosal and serosal) and was allowed to equilibrate for 20 min. Next, the mucosal buffer was replaced by the appropriate formulation to be tested and the experiment was initiated. Aliquots (0.5 ml) were collected from the serosal side and were replaced with an equivalent amount of fresh HEPES buffer (maintained at physiological temperature). The aliquotted samples from the serosal side were analyzed by HPLC.
Owing to the expected variation in the in vitro conditions and harvested rat intestinal segments, five replicates were used per experimental condition. In order to compare data obtained from the different experiments, the apparent permeability coefficients (Papp) were calculated according to:
[formula] Where, dQ/dt is the linear appearance rate of mass in receiver compartment, C0 is the initial solute concentration in donor compartment, and A is the surface area. The higher the Papp value, the better the permeation property. The similarity of the Papp values indicates similar behavior for the two DTPA compounds.
We then evaluated transport of Zn-DTPA and Ca-DTPA through jejunum segments with and without Labrasol.
We then tested the transport of 100 mg/ml DTPA in HEPES buffer with and without added enhancers across jejunum segments; results are in Table 3.

[3] = test system: harvested rat small intestinal segments: Ileum; experiment: Ussing chamber mucosal to serosal transport across rat ileum; format: in vitro ADME; details: 5 mg/ml of DTPA in HEPES Buffer
Experimental: as §1, §2

[4] = test system: rat colon; experiment: Ussing chamber mucosal to serosal transport across rat colon; format: in vitro ADME; details: 5 mg/ml of DTPA in HEPES Buffer
Experimental: as §1, §2

[5] = Bioavailability study after liquid dose of radiolabeled DTPA (14C) in male Sprague-Dawley rats (SRI Study B230-06); format: in vivo; details: for AUC0→last Mean ± SD / AUC0→last: 16.38 mg-equiv DTPA/Kg
Experimental: The objective of this study was to determine the oral bioavailability of Ca-DTPA using radioactive ^14C-DTPA tracer for detection in male Sprague Dawley rats after oral administration in several different formulations. After oral gavage of Ca-DTPA or DTPA (free acid) in sterile water, the oral bioavailability of DTPA is estimated to be about 7% in these two treatment groups. […] In Group 7, which also was administered DTPA in 20% Labrasol (+Quinidine pretreatment), the mean bioavailability was 10%, but this group had greater interindividual variability than seen in the other treatment groups.

O=C([O-])CN(CCN(CC(=O)[O-])CC(=O)[O-])CCN(CC(=O)[O-])CC(=O)[O-].[Ca+2].[Na+].[Na+].[Na+] [Ca-DTPA, calcium diethylenetriaminepentaacetate]
Papp [1]: 1.71 ×10⁻⁶ cm/s
Papp ([2]; Jejunum, 5 mg/ml of drug in HEPES Buffer): 3.84 ×10⁻⁶ cm/s
Papp ([2]; jejunum, 5 mg/ml of drug in HEPES Buffer containing 10% Labrasol): 2.84 ×10⁻⁶ cm/s
Papp ([2]; jejunum, 5 mg/ml of drug in HEPES Buffer containing 20% Labrasol): 3.48 ×10⁻⁶ cm/s
Papp ([2]; jejunum, 5 mg/ml of drug in HEPES Buffer containing 40% Labrasol): 13.51 ×10⁻⁶ cm/s
Papp ([2]; jejunum, 100 mg/ml DTPA in HEPES buffer, 5% Gelucire 44/14 + 5% Labrasol): 7.27 ×10⁻⁶ cm/s
Papp ([2]; jejunum, 100 mg/ml DTPA in HEPES buffer, 5% TPGS + 5% Labrasol): 14.04 ×10⁻⁶ cm/s
Papp ([2]; jejunum, 100 mg/ml DTPA in HEPES buffer, 5% TPGS + 20% Labrasol): 7.85 ×10⁻⁶ cm/s
Papp ([2]; jejunum, 100 mg/ml DTPA in HEPES buffer, 5% Tween 80 + 5% Capmul PG-8): 3.61 ×10⁻⁶ cm/s
Papp ([2]; jejunum, 100 mg/ml DTPA in HEPES buffer, 5% Tween 80 + 5% Labrasol): 11.61 ×10⁻⁶ cm/s
Papp ([2]; jejunum, 100 mg/ml DTPA in HEPES buffer, 5% Tween 80 and 5% Caproyl PGMC): 2.75 ×10⁻⁶ cm/s
Papp ([2]; jejunum, 100 mg/ml DTPA in HEPES buffer, 5% Tween 80 and 5% Labrafil): 2.83 ×10⁻⁶ cm/s
Papp ([2]; jejunum, 100 mg/ml DTPA in HEPES buffer, 10% Gelucire 44/14): 6.57 ×10⁻⁶ cm/s
Papp ([2]; jejunum, 100 mg/ml DTPA in HEPES buffer, 10% Tween 80): 5.43 ×10⁻⁶ cm/s
Papp ([2]; jejunum, 100 mg/ml DTPA in HEPES buffer, 20% Bile Salt): 12.65 ×10⁻⁶ cm/s
Papp ([2]; jejunum, 100 mg/ml of drug in HEPES Buffer containing 10% Labrasol): 6.29 ×10⁻⁶ cm/s
Papp ([2]; jejunum, 100 mg/ml of drug in HEPES Buffer containing 20% Labrasol): 11.76 ×10⁻⁶ cm/s
Papp ([2]; jejunum, 100 mg/ml of drug in HEPES Buffer only): 4.63 ×10⁻⁶ cm/s
Papp [3]: 2.8 ×10⁻⁶ cm/s
Papp [4]: 3.22 ×10⁻⁶ cm/s
% Bioavailability ([5]; Group 1 IV, saline (reference)): 100%
% Bioavailability Mean ± SD ([5]; Group 1 IV, saline (reference)): 100.00%
AUC0→last Mean ± SD ([5]; Group 1 IV, saline, last time point 3 hr): 17.73 ± 0.63 Hr * ( ng/ml)
AUC0→last ([5]; Group 1 IV, saline, last time point 3 hr, individual rats): 17.3934 Hr * ( ng/ml) and 17.34 Hr * ( ng/ml) and 18.4585 Hr * ( ng/ml)
AUC0→last Mean ± SD ([5]; Group 2 Oral, water, 6 hr): 1.22 ± 0.05 Hr * ( ng/ml)
AUC0→last ([5]; Group 2 Oral, water, last time point 6 hr, individual rats): 1.2411 Hr * ( ng/ml) and 1.1632 Hr * ( ng/ml) and 1.2516 Hr * ( ng/ml)
% Bioavailability ([5]; Group 2 Oral, water, individual rats): 7.00% and 6.56% and 7.06%
% Bioavailability Mean ± SD ([5]; Group 4 Oral, 20% Labrasol): 12.14 ± 2.29%
AUC0→last Mean ± SD ([5]; Group 4 Oral, 20% Labrasol, 6 hr): 2.15 ± 0.41 Hr * ( ng/ml)
AUC0→last ([5]; Group 4 Oral, 20% Labrasol, last time point 6 hr, individual rats): 1.6901 Hr * ( ng/ml) and 2.3145 Hr * ( ng/ml) and 2.4507 Hr * ( ng/ml)
% Bioavailability ([5]; Group 4 Oral, 20% Labrasol, individual rats): 9.53% and 13.05% and 13.82%
% Bioavailability Mean ± SD ([5]; Group 5 Oral, 5% Labrasol): 7.12 ± 1.37%
AUC0→last Mean ± SD ([5]; Group 5 Oral, 5% Labrasol, 6 hr): 1.26 ± 0.24 Hr * ( ng/ml)
AUC0→last ([5]; Group 5 Oral, 5% Labrasol, last time point 6 hr, individual rats): 1.4714 Hr * ( ng/ml) and 0.9971 Hr * ( ng/ml) and 1.3181 Hr * ( ng/ml)
% Bioavailability ([5]; Group 5 Oral, 5% Labrasol, individual rats): 8.30% and 5.62% and 7.43%
% Bioavailability Mean ± SD ([5]; Group 6 Oral, 5% TPGS + 5% Labrasol): 7.909 ± 0.84%
AUC0→last Mean ± SD ([5]; Group 6 Oral, 5% TPGS + 5% Labrasol, 6 hr): 1.40 ± 0.15 Hr * ( ng/ml)
AUC0→last ([5]; Group 6 Oral, 5% TPGS + 5% Labrasol, last time point 6 hr, individual rats): 1.3506 Hr * ( ng/ml) and 1.284 Hr * ( ng/ml) and 1.5688 Hr * ( ng/ml)
% Bioavailability ([5]; Group 6 Oral, 5% TPGS + 5% Labrasol, individual rats): 7.62% and 7.24% and 8.85%
AUC0→last Mean ± SD ([5]; Group 7 Oral, 0.15 mM Quinidine 20 min before, then 20% Labrasol, 6 hr): 1.81 ± 1.39 Hr * ( ng/ml)
AUC0→last ([5]; Group 7 Oral, 0.15 mM Quinidine 20 min before, then 20% Labrasol, last time point 6 hr, individual rats): 3.3876 Hr * ( ng/ml) and 1.2912 Hr * ( ng/ml) and 0.7655 Hr * ( ng/ml)
% Bioavailability Mean ± SD ([5]; Group 7 Oral, 0.15 mM Quinidine pretreatment then 20% Labrasol): 10.23 ± 7.82%
% Bioavailability ([5]; Group 7 Oral, 0.15 mM Quinidine pretreatment then 20% Labrasol, individual rats): 19.10% and 7.28% and 4.32%

Reference: USRE42748E1, “Oral DTPA for radionuclide chelation” (priority 2006, dated 2011)
